Experiment [1] has as its target T1, human dopamine D3 receptors (Homo sapiens, UniProt P35462).
T1 construct: expressed in transfected cells
The experiment is described as follows: Dopamine D3 receptor binding ([125I]-iodosulpride). As to conditions: for Ki: membranes from HEK-293 cells, 0.1 nM [125I]-iodosulpride; for Ki(D2)/Ki(D3): ratio of receptor binding constants, D2L versus D3. On the procedure:
(§1) The substance to be tested was either dissolved in methanol/Chremophor® (BASF-AG) or in dimethyl sulfoxide and then diluted with water to the desired concentration.
Each assay mixture was run in triplicate.
The incubation buffer contained 50 mM tris, 120 mM NaCl, 5 mM KCl, 2 mM CaCl2, 2 mM MgCl2 and 0.1% bovine serum albumin, 10 μM quinolone and 0.1% ascorbic acid (prepared fresh daily). The buffer was adjusted to pH 7.4 with HCl.
After having been incubated at 25° C. for 60 minutes, the assay mixtures were filtered through a Whatman GF/B glass fiber filter under vacuum using a cell collecting device. The filters were transferred to scintillation viols using a filter transfer system. After 4 ml of Ultima Gold® (Packard) have been added, the samples were shaken for one hour and the radioactivity was then counted in a Beta-Counter (Packard, Tricarb 2000 or 2200CA). The cpm values were converted into dpm using a standard quench series and the program belonging to the instrument.
The inhibition curves were analyzed by means of iterative nonlinear regression analysis using the Statistical Analysis System (SAS) which is similar to the “LIGAND” program described by Munson and Rodbard.

For the next experiment, the target named is T2, human 5-HT6 receptor (Homo sapiens, UniProt P50406).
T2 construct: expressed in transfected cells
T2 sequence (P50406 whole entry): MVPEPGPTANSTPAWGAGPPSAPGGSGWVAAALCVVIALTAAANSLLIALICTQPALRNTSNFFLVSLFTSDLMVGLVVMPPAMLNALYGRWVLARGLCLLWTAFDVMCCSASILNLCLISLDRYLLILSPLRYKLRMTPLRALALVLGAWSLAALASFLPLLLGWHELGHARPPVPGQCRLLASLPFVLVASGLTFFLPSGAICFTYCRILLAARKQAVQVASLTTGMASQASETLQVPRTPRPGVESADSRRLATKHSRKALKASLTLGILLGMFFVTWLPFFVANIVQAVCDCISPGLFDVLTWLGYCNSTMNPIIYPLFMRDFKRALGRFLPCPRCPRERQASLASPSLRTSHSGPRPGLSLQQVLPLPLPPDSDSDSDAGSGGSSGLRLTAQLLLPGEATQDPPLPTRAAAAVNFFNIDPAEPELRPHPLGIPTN
The experiment is described as follows: Human 5-HT6 receptor binding assay (3H-LSD displacement). As to conditions: membranes from HEK-293 cells, 2 nM 3H-LSD. How it is done:
as §1
The compounds were dissolved in a concentration of 10^−2 M or 10^−3 M in DMSO. Further dilutions were performed in incubation buffer.
The procedure for the binding assay was based on the method of Monsma et al. (1993) Mol Pharmacol 43: 320-327. The binding reaction was carried out in a total volume of 0.250 ml for 60 min at 37° C. Membranes from HEK-293 cells stably expressing the human 5-HT6 receptor were incubated with 2 nM ^3H-LSD in the presence or absence of various concentrations of test compound for 60 min at 37° C. Non-specific binding was defined with 100 μM Serotonin (5-HT). Assays were performed in duplicate. Bound and free radioligand was separated by filtration and bound radioactivity determined by liquid scintillation counting.
The specific ligand binding to the receptors was defined as the difference between the total binding and the nonspecific binding determined in the presence of an excess of unlabelled 5-HT. The results are expressed as a percent of control specific binding obtained in the presence of compound. The IC50 values (concentration causing a half-maximal inhibition of control specific binding) and Hill coefficients (nH) were determined by non-linear regression analysis of the competition curves using Hill equation curve fitting.
The inhibition constants (Ki) were calculated from the Cheng Prusoff equation (Ki=IC50/(1+(L/KD)), where L=concentration of radioligand in the assay, and KD=affinity of the radioligand for the receptor).

Structures can show the parent of a compound that is named as a salt.

T1 sequence (P35462 whole entry): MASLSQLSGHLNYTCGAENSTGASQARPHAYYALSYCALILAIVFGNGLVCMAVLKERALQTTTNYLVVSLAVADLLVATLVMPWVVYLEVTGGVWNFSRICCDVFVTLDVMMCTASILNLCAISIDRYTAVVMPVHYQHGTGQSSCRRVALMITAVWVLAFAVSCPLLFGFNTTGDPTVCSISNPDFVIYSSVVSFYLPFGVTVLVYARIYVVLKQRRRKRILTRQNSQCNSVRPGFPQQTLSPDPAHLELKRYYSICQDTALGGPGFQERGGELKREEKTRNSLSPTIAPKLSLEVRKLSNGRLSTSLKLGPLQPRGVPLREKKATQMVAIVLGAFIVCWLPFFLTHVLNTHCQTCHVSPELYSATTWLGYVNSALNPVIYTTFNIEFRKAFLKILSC

Turning to “3-Trifluoromethyl-N-[4-((S)-1-propyl-pyrrolidin-3-yl)-phenyl]-benzenesulfonamide [Example 4]”, in experiment [1], the Ki – broadly, the dissociation constant of the complex between target and ligand, obtained from inhibition or displacement – fell in the range of 10 to 50 nM; the “Ki(D2)/Ki(D3)” value is “+ (between 10 and 50)”. Further, the Ki at human 5-HT6 receptor is 1 to 10 nM.
Take `CCCN1C[C@@H](CF)[C@H](c2ccc(NS(=O)(=O)c3cccc(C(F)(F)F)c3)cc2)C1` (relative stereo) [Example 95, N-[4-(trans-4-Fluoromethyl-1-propyl-pyrrolidin-3-yl)-phenyl]-3-trifluoromethyl-benzenesulfonamide]: the inhibition constant (Ki) in experiment [1] was in the range of 10 to 50 nM; at human 5-HT6 receptor, 1 to 10 nM. Further, in experiment [1], the “Ki(D2)/Ki(D3)” value was “+ (between 10 and 50)”.
Regarding `CCCN1CC[C@@H](c2ccc(NS(=O)(=O)c3cc(F)c(Br)cc3F)cc2)C1` [Example 3, 4-Bromo-3,6-difluoro-N-[4-((S)-1-propyl-pyrrolidin-3-yl)-phenyl]-benzenesulfonamide], in experiment [1], the Ki was in the range of 1 to 10 nM; the “Ki(D2)/Ki(D3)” value was “+++ (between 100 and 150)”. The same compound came in with an inhibition constant Ki on human 5-HT6 receptor of 10 to 50 nM.
On to `CCCN1CC[C@@H](c2ccc(NS(=O)(=O)c3ccc(Br)s3)cc2)C1.Cl` [Example 59, 5-Bromo-thiophene-2-sulfonic acid [4-((S)-1-propyl-pyrrolidin-3-yl)-phenyl]-amide hydrochloride], for which, in experiment [1], the Ki fell in the range of 1 to 10 nM; the “Ki(D2)/Ki(D3)” value was “+++ (between 100 and 150)”. This compound also yielded a Ki on human 5-HT6 receptor of 1 to 10 nM.
Regarding `CCCc1ccc(S(=O)(=O)Nc2ccc([C@@H]3CCN(CCC)C3)cc2)s1` [Example 60, 5-Propyl-thiophene-2-sulfonic acid [4-((S)-1-propyl-pyrrolidin-3-yl)-phenyl]-amide], in experiment [1], the inhibition constant Ki is < 1 nM; the “Ki(D2)/Ki(D3)” value is “+ (between 10 and 50)”. The compound further registered a Ki at human 5-HT6 receptor of 10 to 50 nM.
In the case of `CCCN1CC[C@@H](c2ccc(NS(=O)(=O)c3ccc(OC(F)(F)F)c(Br)c3)cc2)C1.Cl` [Example 61, 3-Bromo-N-[4-((S)-1-propyl-pyrrolidin-3-yl)-phenyl]-4-trifluoromethoxy-benzenesulfonamide hydrochloride], in experiment [1], the inhibition constant (Ki) lay in the range of 1 to 10 nM; the “Ki(D2)/Ki(D3)” value is “++ (between 50 and 100)”. On human 5-HT6 receptor, this compound returned an inhibition constant (Ki) of 10 to 50 nM.
In the case of `CCCN1CC[C@@H](c2ccc(NS(=O)(=O)c3ccc(Cl)s3)cc2)C1` [Example 62, 5-Chloro-thiophene-2-sulfonic acid [4-((S)-1-propyl-pyrrolidin-3-yl)-phenyl]-amide], in experiment [1], the inhibition constant Ki was in the range of 1 to 10 nM and the “Ki(D2)/Ki(D3)” value is “++++ (>150)”. This compound came in with a Ki at human 5-HT6 receptor of 1 to 10 nM.
As to `CCCN1CC[C@@H](c2ccc(NS(=O)(=O)c3cccc(C#N)c3)cc2)C1` [Example 64, 3-Cyano-N-[4-((S)-1-propyl-pyrrolidin-3-yl)-phenyl]-benzenesulfonamide hydrochloride], on human 5-HT6 receptor, the Ki lay within 50 to 150 nM.
On the same count and under the same terms, for `O=S(=O)(Nc1cccc([C@@H]2CCN(Cc3ccccc3)C2)c1)c1cccc(C(F)(F)F)c1` [Example 65, N-[3-((S)-1-Benzyl-pyrrolidin-3-yl)-phenyl]-3-trifluoromethyl-benzene sulfonamide] the value was 10 to 50 nM.
`CCCN1CC[C@@H](c2ccc(NS(=O)(=O)c3ccc(-c4ccccn4)s3)cc2)C1.Cl` [Example 66, 5-Pyridin-2-yl-thiophene-2-sulfonic acid [4-((S)-1-propyl-pyrrolidin-3-yl)-phenyl]-amide hydrochloride]: the Ki was < 1 nM in experiment [1] and 10 to 50 nM at human 5-HT6 receptor. The “Ki(D2)/Ki(D3)” value in experiment [1] is “+++ (between 100 and 150)”.
As for `O=S(=O)(Nc1cccc([C@@H]2CCNC2)c1)c1cccc(C(F)(F)F)c1` [Example 67, N-[3-((S)-pyrrolidin-3-yl)-phenyl]-3-trifluoromethyl-benzene sulfonamide], on human 5-HT6 receptor, the Ki lay in the range of 1 to 10 nM.
For the compound `Cl.O=S(=O)(Nc1ccc([C@@H]2CCNC2)cc1)c1ccc(-c2ccccn2)s1` [Example 69, 5-Pyridin-2-yl-thiophene-2-sulfonic acid ((S)-4-pyrrolidin-3-yl-phenyl)-amide hydrochloride], in experiment [1], the inhibition constant (Ki) fell in the range of 10 to 50 nM; the “Ki(D2)/Ki(D3)” value was “+++ (between 100 and 150)”. Also, the Ki on human 5-HT6 receptor lay within 10 to 50 nM.
With `CCCN1CC[C@@H](c2ccc(NS(=O)(=O)c3cccc(Br)c3)cc2)C1` [Example 70, 3-Bromo-N-[4-((S)-1-propyl-pyrrolidin-3-yl)-phenyl]-benzenesulfonamide], in experiment [1], the inhibitory constant (Ki) lay in the range of 1 to 10 nM; the “Ki(D2)/Ki(D3)” value was “++ (between 50 and 100)”. On human 5-HT6 receptor, this compound returned an inhibitory constant (Ki) of 1 to 10 nM.
Take `CCCN1CC[C@@H](c2ccc(NS(=O)(=O)c3cccc(N4CCCC4)c3)cc2)C1` [Example 71, N-[4-((S)-1-Propyl-pyrrolidin-3-yl)-phenyl]-3-pyrrolidin-1-yl-benzenesulfonamide]: in experiment [1], the inhibition constant (Ki) is 10 to 50 nM; the “Ki(D2)/Ki(D3)” value was “+ (between 10 and 50)”. The Ki at human 5-HT6 receptor was in the range of 1 to 10 nM.
Regarding `CCCN1CC[C@@H](c2ccc(NS(=O)(=O)c3ccc(-n4cccn4)s3)cc2)C1.Cl` [Example 73, 5-Pyrazol-1-yl-thiophene-2-sulfonic acid [4-((S)-1-propyl-pyrrolidin-3-yl)-phenyl]-amide hydrochloride], in experiment [1], the inhibition constant (Ki) is 1 to 10 nM; the “Ki(D2)/Ki(D3)” value is “++ (between 50 and 100)”. The same compound returned a Ki on human 5-HT6 receptor of 10 to 50 nM.
Turning to `CCCN1CC[C@@H](c2ccc(NS(=O)(=O)c3cc(Cl)c(Cl)s3)cc2)C1.Cl` [Example 74, 4,5-Dichloro-thiophene-2-sulfonic acid [4-((S)-1-propyl-pyrrolidin-3-yl)-phenyl]-amide hydrochloride], in experiment [1], the inhibitory constant (Ki) is 10 to 50 nM; the “Ki(D2)/Ki(D3)” value is “++ (between 50 and 100)”. For the same compound, at human 5-HT6 receptor, the inhibition constant Ki was in the range of 1 to 10 nM.
For `CCCN1CC[C@@H](c2ccc(NS(=O)(=O)c3ccc(-c4csnn4)s3)cc2)C1.Cl` [Example 75, 5-[1,2,3]Thiadiazol-4-yl-thiophene-2-sulfonic acid [4-((S)-1-propyl-pyrrolidin-3-yl)-phenyl]-amide hydrochloride], in experiment [1], the inhibition constant Ki was in the range of 10 to 50 nM; the “Ki(D2)/Ki(D3)” value was “+ (between 10 and 50)”. The Ki at human 5-HT6 receptor lay in the range of 10 to 50 nM.
Take `CN1CC[C@@H](c2cccc(NS(=O)(=O)c3cccc(C(F)(F)F)c3)c2)C1` [Example 77, N-[3-((S)-1-Methyl-pyrrolidin-3-yl)-phenyl]-3-trifluoromethyl-benzenesulfonamide hydrochloride]: at human 5-HT6 receptor, the inhibition constant Ki is 1 to 10 nM.
The same measure, in the same setting: for `CCCN1CC[C@@H](c2ccc(NS(=O)(=O)c3cc(C(F)(F)F)ccc3OC)cc2)C1` [Example 91, 2-Methoxy-N-[4-((S)-1-propyl-pyrrolidin-3-yl)-phenyl]-5-trifluoromethyl-benzenesulfonamide] the value was 10 to 50 nM.
For `CCCN1C[C@H](c2ccc(NS(=O)(=O)c3cccc(C(F)(F)F)c3)cc2)C[C@H]1C` [Example 94, N-[4-((3S,5R)-5-Methyl-1-propyl-pyrrolidin-3-yl)-phenyl]-3-trifluoromethyl-benzenesulfonamide hydrochloride], the Ki at human 5-HT6 receptor lay within 10 to 50 nM.
Still for that read-out and setting: next, `O=S(=O)(Nc1ccc([C@@H]2CCNC2)cc1)c1cccc(C(F)(F)F)c1` [Example 101, N—((S)-4-Pyrrolidin-3-yl-phenyl)-3-trifluoromethyl-benzenesulfonamide]: 10 to 50 nM.
On the same count and under the same terms, next, `CCCN1CC[C@@H](c2ccc(NS(=O)(=O)c3cc(C(F)(F)F)ccc3F)cc2)C1` [Example 104, 2-Fluoro-N-[4-((S)-1-propyl-pyrrolidin-3-yl)-phenyl]-5-trifluoromethyl-benzenesulfonamide]: 10 to 50 nM.

The values are drawn from patent US8642642B2, “Heterocyclic arylsulphones suitable for treating disorders that respond to modulation of the serotonin 5HT6 receptor” (Abbott Laboratories, priority 2006, dated 2014).
